Data: patent US12371454B2, “Cyclic peptide compound having Kras inhibitory action” (priority 2019, dated 2025)
Starred links: 1 amine or outer side, 2 acyl side, 3 side chain; linkers in the order of their positions; H or OH if unused. Positions of bridges follow the written chain, without caps; N, C: chain ends. Non-standard residues stand in square brackets, D forms with d. Residues, ends and D or L forms follow the SMILES beside them. *: point of attachment. hPhe(3-Cl-4-CF3) = N[C@@H](CCc1ccc(C(F)(F)F)c(Cl)c1)C(=O)O; NMePhe(4-Me) = CN[C@@H](Cc1ccc(C)cc1)C(=O)O; NMePhe(4-F) = CN[C@@H](Cc1ccc(F)cc1)C(=O)O; NMedβ3hAla = C[C@H](CC(=O)[*:2])N(C)[*:1]; dαMeGly(allyl) = C=CC[C@@](C)(N)C(=O)O; NMeCha = CN[C@@H](CC1CCCCC1)C(=O)O; Pro(4-oxo) = O=C1CN[C@H](C(=O)O)C1; Ala(cPr) = N[C@@H](CC1CC1)C(=O)O; NMeCba = CN[C@@H](CC1CCC1)C(=O)O; NMeChg = CN[C@H](C(=O)O)C1CCCCC1; NMeI = CC[C@H](C)[C@H](NC)C(=O)O; NMeD = CN[C@@H](CC(=O)O)C(=O)O; NMeL = CN[C@@H](CC(C)C)C(=O)O; NMeNva = CCC[C@H](NC)C(=O)O; NMeV = CN[C@H](C(=O)O)C(C)C; Morpholide = C1CN(*)CCO1; NMeA = CN[C@@H](C)C(=O)O; Piperidide = C1CCN(*)CC1; Pyrrolidide = C1CCN(*)C1; Ac5c = NC1(C(=O)O)CCCC1; Aze = O=C(O)[C@@H]1CCN1; Sar = CNCC(=O)O

Key:
[1] = target: T1, Kras and SOS1 (biotin-tagged human Kras loaded with GDP, His-tagged human SOS1) (Homo sapiens, UniProt P01116, G12D); assay: Protein-protein interaction inhibition between Kras and SOS1 (KrasGl2D-SOS PPI) using AlphaScreen; type: binding; conditions: AlphaScreen; biotin-tagged human Kras loaded with GDP, His-tagged human SOS1; read-out: KRAS G12D-SOS PPI IC50
T1 construct: made in house; host or cells: E. coli (stated for Kras only)
T1 sequence (P01116 1-188 isoform P01116-2 G12D): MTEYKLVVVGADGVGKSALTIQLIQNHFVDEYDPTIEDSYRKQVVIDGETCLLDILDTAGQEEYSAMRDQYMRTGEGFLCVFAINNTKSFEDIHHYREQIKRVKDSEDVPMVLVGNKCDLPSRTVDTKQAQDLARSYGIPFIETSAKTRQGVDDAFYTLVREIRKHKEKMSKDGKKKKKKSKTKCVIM
Outline: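 Donor beads (nickel) hold His-SOS1; acceptor beads (streptavidin) hold biotin-Kras bound to GDP. Signal measured at 520-620 nm following 680 nm excitation.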

[2] = system: Human pancreatic cancer cell line AsPC-1; assay: Measurement of AsPC-1 cell growth inhibition (AsPC-1 CGI); type: cell-based; conditions: 96 h
Outline: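 AsPC-1 cells in 15% FBS RPMI-1640 were exposed to test compound for 96 hours at 37° C, with CellTiter-Glo as endpoint.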

SMILES | IC50 [1] | IC50 [2]
CC[C@H](C)[C@@H]1NC(=O)[C@H](CC(C)C)N(C)C(=O)C[C@@H](C(=O)N2CCCC2)N(C)C(=O)[C@H]([C@@H](C)CC)N(C)C(=O)C2(CCCC2)NC(=O)[C@@H]2CCCN2C(=O)[C@H](CCc2ccc(C(F)(F)F)c(Cl)c2)NC(=O)CN(C)C(=O)[C@H](Cc2ccc(C)cc2)N(C)C(=O)CN(C)C(=O)CN(C)C1=O [Compound 1790] ([NMeL]I[Sar][Sar][NMePhe(4-Me)][Sar][hPhe(3-Cl-4-CF3)]P[Ac5c][NMeI][NMeD]-Pyrrolidide; lactam N-11) | 0.0007 µM | 0.02 to 0.05 µM
C=CC[C@@]1(C)NC(=O)[C@@H]2CCCN2C(=O)[C@H](CCc2ccc(C(F)(F)F)c(Cl)c2)NC(=O)CN(C)C(=O)[C@H](CC2CCCCC2)N(C)C(=O)CN(C)C(=O)CN(C)C(=O)[C@H]([C@@H](C)CC)NC(=O)[C@H](CC(C)C)N(C)C(=O)C[C@@H](C)N(C)C(=O)[C@H](C(C)C)N(C)C1=O [Compound 1038] (cyclo(I[Sar][Sar][NMeCha][Sar][hPhe(3-Cl-4-CF3)]P[dαMeGly(allyl)][NMeV][NMedβ3hAla][NMeL])) | 0.018 µM | 0.1 to 0.5 µM
CCC[C@H]1C(=O)N[C@@H]([C@@H](C)CC)C(=O)N(C)CC(=O)N(C)CC(=O)N(C)[C@@H](CC2CCCCC2)C(=O)N(C)CC(=O)N[C@@H](CCc2ccc(C(F)(F)F)c(Cl)c2)C(=O)N2CCC[C@H]2C(=O)NC2(CCCC2)C(=O)N(C)[C@@H](C2CCCCC2)C(=O)N(C)[C@H](C(=O)N2CCOCC2)CC(=O)N1C [Compound 1996] ([NMeNva]I[Sar][Sar][NMeCha][Sar][hPhe(3-Cl-4-CF3)]P[Ac5c][NMeChg][NMeD]-Morpholide; lactam N-11) | 0.00064 µM | 0.02 to 0.05 µM
CC[C@H](C)[C@@H]1NC(=O)[C@H](CC(C)C)N(C)C(=O)C[C@@H](C(=O)N2CCCCC2)N(C)C(=O)[C@H](C2CCCCC2)N(C)C(=O)C2(CCCC2)NC(=O)[C@@H]2CC(=O)CN2C(=O)[C@H](CCc2ccc(C(F)(F)F)c(Cl)c2)NC(=O)CN(C)C(=O)[C@H](CC2CCCCC2)N(C)C(=O)CN(C)C(=O)CN(C)C1=O [Compound 1022] ([NMeL]I[Sar][Sar][NMeCha][Sar][hPhe(3-Cl-4-CF3)][Pro(4-oxo)][Ac5c][NMeChg][NMeD]-Piperidide; lactam N-11) | 0.00042 µM | 0.1 to 0.5 µM
CC[C@H](C)[C@@H]1NC(=O)[C@H](CC(C)C)N(C)C(=O)C[C@@H](C(=O)N(C)C)N(C)C(=O)[C@H]([C@@H](C)CC)N(C)C(=O)C2(CCCC2)NC(=O)[C@H](Cc2ccc(C)cc2)N(C)C(=O)[C@H](CCc2ccc(C(F)(F)F)c(Cl)c2)NC(=O)CN(C)C(=O)[C@H](Cc2ccc(C)cc2)N(C)C(=O)[C@@H]2CCN2C(=O)[C@H](C)N(C)C1=O [Compound 340] ([NMeL]I[NMeA][Aze][NMePhe(4-Me)][Sar][hPhe(3-Cl-4-CF3)][NMePhe(4-Me)][Ac5c][NMeI][NMeD]-NMe2; lactam N-11) | 0.0047 µM | 0.02 to 0.05 µM
CC(C)C[C@H]1C(=O)N[C@@H](CC2CC2)C(=O)N(C)CC(=O)N(C)CC(=O)N(C)[C@@H](CC2CCCCC2)C(=O)N(C)CC(=O)N[C@@H](CCc2ccc(C(F)(F)F)c(Cl)c2)C(=O)N2CCC[C@H]2C(=O)NC2(CCCC2)C(=O)N(C)[C@@H](C2CCCCC2)C(=O)N(C)[C@H](C(=O)N2CCCCC2)CC(=O)N1C [Compound 689] ([NMeL][Ala(cPr)][Sar][Sar][NMeCha][Sar][hPhe(3-Cl-4-CF3)]P[Ac5c][NMeChg][NMeD]-Piperidide; lactam N-11) | 0.0021 µM | 0.1 to 0.5 µM
CC[C@H](C)[C@@H]1NC(=O)[C@H](CC(C)C)N(C)C(=O)C[C@@H](C(=O)N(C)C)N(C)C(=O)[C@H]([C@@H](C)CC)N(C)C(=O)C2(CCCC2)NC(=O)[C@H](Cc2ccc(F)cc2)N(C)C(=O)[C@H](CCc2ccc(C(F)(F)F)c(Cl)c2)NC(=O)CN(C)C(=O)[C@H](Cc2ccc(C)cc2)N(C)C(=O)[C@@H]2CCN2C(=O)[C@H](C)N(C)C1=O [Compound 385] ([NMeL]I[NMeA][Aze][NMePhe(4-Me)][Sar][hPhe(3-Cl-4-CF3)][NMePhe(4-F)][Ac5c][NMeI][NMeD]-NMe2; lactam N-11) | 0.0047 µM | 0.05 to 0.1 µM
CC[C@H](C)[C@@H]1NC(=O)[C@H](CC2CCC2)N(C)C(=O)C[C@@H](C(=O)N2CCCCC2)N(C)C(=O)[C@H](C(C)C)N(C)C(=O)C2(CCCC2)NC(=O)[C@@H]2CCCN2C(=O)[C@H](CCc2ccc(C(F)(F)F)c(Cl)c2)NC(=O)CN(C)C(=O)[C@H](CC2CCCCC2)N(C)C(=O)[C@@H]2CCN2C(=O)[C@H](C)N(C)C1=O [Compound 1114] ([NMeCba]I[NMeA][Aze][NMeCha][Sar][hPhe(3-Cl-4-CF3)]P[Ac5c][NMeV][NMeD]-Piperidide; lactam N-11) | 0.011 µM | 0.1 to 0.5 µM
